Like-named read-outs stand apart in the source and are kept apart here. Where a SMILES comes first, the peptide text is derived from it.
Molecular target: Recombinant HLA-A*201 (Homo sapiens, UniProt P04439, D140Y/D185E/D98H/E176V/E277Q/G131W/G231S/I119V/I121R/I166T/I218V/L300P/L318F/N151K/N90K/P208A/P217A/Q86G/Q94H/R138H/R169H/T345S)
Assay: biochemical
Type: binding
[1] = 20°C, 48 h, standard peptide HBV core 47-56 (52->C), read-out: HLA-A2 Binding Affinity(IC50; µM)

SMILES | IC50 [1] | IC50
CC(C)C[C@H](NC(=O)CNC(=O)[C@H](CC(=O)O)NC(=O)[C@H](CC(C)C)NC(=O)[C@H](CC(C)C)NC(=O)[C@@H](N)Cc1ccc(O)cc1)C(=O)N[C@@H](CCCNC(=N)N)C(=O)N[C@@H](C)C(=O)O [37-44] (H-YLLDGLRA-OH) | 1.6 µM | –
CC(C)C[C@H](NC(=O)[C@@H](N)CCCNC(=N)N)C(=O)N[C@@H](Cc1c[nH]c2ccccc12)C(=O)N[C@H](C(=O)N[C@@H](Cc1ccc(O)cc1)C(=O)N[C@@H](CS)C(=O)NCC(=O)N[C@@H](CC(N)=O)C(=O)NCC(=O)N[C@H](C(=O)O)[C@@H](C)O)C(C)C [206-215] (H-RLWVYCGNGT-OH) | 2 µM | –
CC[C@H](C)[C@H](NC(=O)[C@@H](N)Cc1ccccc1)C(=O)N[C@@H](Cc1ccc(O)cc1)C(=O)N[C@@H](C)C(=O)NCC(=O)N[C@@H](CO)C(=O)N[C@@H](CC(C)C)C(=O)N[C@@H](CO)C(=O)N[C@@H](C)C(=O)O [143-151] (H-FIYAGSLSA-OH) | 0.4 µM | –
CC(C)C[C@H](NC(=O)[C@H](Cc1c[nH]c2ccccc12)NC(=O)[C@H](CCC(N)=O)NC(=O)[C@@H]1CCCN1C(=O)[C@H](CC(C)C)NC(=O)[C@H](CCC(=O)O)NC(=O)[C@H](CO)NC(=O)[C@@H](NC(=O)[C@H](CC(C)C)NC(=O)[C@@H](N)Cc1ccccc1)[C@@H](C)O)C(=O)O [100-109] (H-FLTSELPQWL-OH) | 0.7 µM | –
CC(C)C[C@H](NC(=O)[C@H](CCCNC(=N)N)NC(=O)[C@@H](NC(=O)[C@H](CC(N)=O)NC(=O)[C@H](CC(N)=O)NC(=O)[C@H](C)NC(=O)[C@@H](NC(=O)[C@H](CC(C)C)NC(=O)[C@@H](N)CCCCN)C(C)C)[C@@H](C)O)C(=O)O [199-207] (H-KLVANNTRL-OH) | – | 1.4 µM
CC[C@H](C)[C@H](NC(=O)[C@H](CO)NC(=O)[C@H](CC(C)C)NC(=O)CN)C(=O)N[C@H](C(=O)N[C@@H](CCSC)C(=O)N1CCC[C@H]1C(=O)N[C@H](C(=O)O)C(C)C)C(C)C [65-72] (H-GLSIVMPV-OH) | 0.3 µM | –
CC[C@H](C)[C@H](NC(=O)[C@H](CC(C)C)NC(=O)[C@H](CO)NC(=O)[C@@H]1CCCN1C(=O)CNC(=O)[C@H](CCSC)NC(=O)CN)C(=O)NCC(=O)N[C@@H](CC(C)C)C(=O)O [158-166] (H-GMGPSLIGL-OH) | 1.4 µM | –
CC[C@H](C)[C@H](NC(=O)[C@H](CCSC)NC(=O)[C@H](C)NC(=O)[C@H](CO)NC(=O)[C@H](CO)NC(=O)CNC(=O)[C@H](C)NC(=O)[C@H](CCSC)NC(=O)[C@@H](N)CO)C(=O)N[C@@H](CC(C)C)C(=O)O [126-135] (H-SMAGSSAMIL-OH) | 0.5 µM | –
CC(C)C[C@H](NC(=O)[C@H](Cc1c[nH]c2ccccc12)NC(=O)[C@H](CCC(N)=O)NC(=O)[C@@H]1CCCN1C(=O)[C@H](CC(C)C)NC(=O)[C@H](CCC(=O)O)NC(=O)[C@H](CO)NC(=O)[C@@H](NC(=O)[C@@H](N)CC(C)C)[C@@H](C)O)C(=O)O [101-109] (H-LTSELPQWL-OH) | 6 µM | –
CC[C@H](C)[C@H](NC(=O)[C@@H](N)Cc1ccccc1)C(=O)N[C@@H](Cc1ccc(O)cc1)C(=O)N[C@@H](C)C(=O)NCC(=O)N[C@@H](CO)C(=O)N[C@@H](CC(C)C)C(=O)N[C@@H](CO)C(=O)N[C@@H](C)C(=O)N[C@@H](CC(C)C)C(=O)O [143-152, FIYAGSLSAL] (H-FIYAGSLSAL-OH) | 0.01 µM | –
CC(C)C[C@H](NC(=O)[C@H](CC(N)=O)NC(=O)[C@H](CO)NC(=O)[C@H](CO)NC(=O)[C@H](CCCNC(=N)N)NC(=O)[C@@H](NC(=O)[C@H](Cc1ccccc1)NC(=O)[C@H](CC(N)=O)NC(=O)[C@H](CCC(=O)O)NC(=O)[C@H](CC(C)C)NC(=O)[C@@H](N)Cc1ccccc1)C(C)C)C(=O)O [228-238] (H-FLENFVRSSNL-OH) | 1.2 µM | –
CC[C@H](C)[C@H](NC(=O)[C@H](CCSC)NC(=O)[C@H](C)NC(=O)[C@H](CO)NC(=O)[C@H](CO)NC(=O)CNC(=O)[C@H](C)NC(=O)[C@H](CCSC)NC(=O)[C@@H](N)CO)C(=O)O [126-134] (H-SMAGSSAMI-OH) | – | 1.7 µM
CC(C)C[C@H](NC(=O)[C@H](CCCNC(=N)N)NC(=O)[C@@H](NC(=O)[C@H](CC(N)=O)NC(=O)[C@H](CC(N)=O)NC(=O)[C@H](C)NC(=O)[C@@H](NC(=O)[C@H](CC(C)C)NC(=O)[C@@H](N)CCCCN)C(C)C)[C@@H](C)O)C(=O)N[C@@H](Cc1c[nH]c2ccccc12)C(=O)N[C@H](C(=O)O)C(C)C [199-209] (H-KLVANNTRLWV-OH) | 0.6 µM | –
CC(C)C[C@H](NC(=O)[C@H](Cc1ccc(O)cc1)NC(=O)[C@H](CCC(=O)O)NC(=O)[C@@H](NC(=O)[C@@H]1CCCN1C(=O)[C@H](CC(C)C)NC(=O)CN)C(C)C)C(=O)N[C@@H](CCC(N)=O)C(=O)N[C@H](C(=O)O)C(C)C [5-13] (H-GLPVEYLQV-OH) | 7 µM | –

— patent EP1211260A1, “Peptides from Ag85 of mycobacterium and uses thereof” (priority 2000, dated 2002)
